Measurements taken from US20200054589A1, “COMBINATION OF A PPAR AGONIST WITH A FXR AGONIST” (Genfit, priority 2017, published 2020).

Assays:
[1] = test system: TGFβ1-induced human primary hepatic stellate cells (hHSC), α-SMA; test: α-SMA ELISA in TGFβ1-activated hHSC (in vitro model of hepatic fibrogenesis), synergy by Excess Over Bliss; format: cell-based; conditions: TGFβ1 1 ng/ml, 48 h
Procedure: The human primary hepatic stellate cells (hHSC) (Innoprot) were cultured in STeCM medium (ScienCell cat #5301) supplemented with 2% fetal bovine serum (FBS, ScienCell cat #0010), 1% penicillin/streptomycin (ScienCell cat #0503) and stellate cell growth supplement (SteCGS; ScienCell cat #5352). Cell-culture flasks were coated with Poly-L Lysine (Sigma cat # P4707) for a better adherence.
The FXR agonist INT-767 (CAS #1000403-03-1, Cat # HY-12434, batch #19249) was obtained commercially from Haoyuan Chemexpress. For these experiments, a checkerboard matrix was generated. […]
The level of α-SMA was measured using a Sandwich ELISA. […]
The values obtained in the αSMA ELISA assays were first transformed into percentage inhibitions over TGF-β1 control. Then, using these percentage inhibitions, EOB (Excess Over Bliss) was determined to define the synergistic effects of drug combinations. Expected Bliss additivism score (E) was firstly determined by the equation: […]
For the combinations INT-767/Elafibranor, an additional total Bliss score was calculated by summation of all EOB. […]
The significance of the observed differences between INT-767/Elafibranor over the highest single agent was determined by a student's t-test. *: p<0.05; **: p<0.01; ***: p<0.001.

[2] = test system: genes involved in tissue remodeling and inflammation (αSMA (ACTA2), TIMP1, TGFB1, CCR5) in CDAA/chol fed rat livers; test: Hepatic gene expression analysis (quantitative PCR) in CDAA+1% cholesterol model; format: in vivo, Wistar rats; conditions: liver; Percentage over the untreated CDAA + 1% cholesterol rats; 12 weeks; GFT505 3 mg/kg/d, OCA 10 mg/kg/d, or GFT505 + OCA
Procedure: (§1) The preventive effects of Elafibranor (GFT505) alone, OCA alone and the combination of both were assessed in a fibrosing NASH-model of rats fed a CDAA+1% cholesterol diet. 150-175 g male Wistar rats were fed a control (CSAA) diet, CDAA+1% cholesterol diet, or CDAA+1% cholesterol diet supplemented with Elafibranor 1, 3 and 10 mg/kg/day, OCA 10 and 30 mg/kg/day or combined drugs (Elafibranor 1, 3 and 10 mg/kg/day combined to OCA 10 mg/kg/day) for 12 weeks.
(§2) The body weight and the food intake were monitored twice per week. On the last day of treatment, rats were sacrificed after a 6 h fasting period. The liver was rapidly excised for biochemical and histological studies.
Total RNA was isolated from rat livers using RNeasy Mini Kit (Qiagen) following manufacturer's instructions. Total RNA were reverse transcribed into cDNA using M-MLV RT (Moloney Murine Leukemia Virus Reverse Transcriptase) (Invitrogen cat #28025) in 1× RT buffer (Invitrogen), 0.5 mM DTT (Invitrogen), 0.18 mM dNTPs (Promega), 200 ng pdN6 (Amersham) and 30 U of RNase inhibitor (Promega).
Quantitative PCR was then carried out using the CFX96 Touch™ Real-Time PCR Detection System (Biorad). Briefly, the PCR reactions were performed in 96-WP format in 25 μl of total volume containing 1 μL of reverse transcription reaction, 0.5 μL of reverse and forward primers (10 pmol each), and 12.5 μl of 2× iQ SYBR Green Supermix (BioRad), using the following primer sequences:
Expression levels were normalized using the expression of Rplp0 gene as a reference in samples. For each gene, the standard curves were drawn by selecting the best points (at least three points) in order to have PCR reaction efficiency close to 100% and a correlation coefficient close to 1. Expression levels were determined using the standard curve equation for both the housekeeping gene and the target gene (taking into account the specific PCR efficiency of each target gene).

[3] = test system: fibrosing NASH-model of rats fed a CDAA+1% cholesterol diet; test: Liver histology (picrosirius fibrosis surface, NASH lesions) in chronic CDAA+1% cholesterol model (12 weeks); format: in vivo, Wistar rats
Procedure: as §1, §2
The liver slices were first fixed for 12 hours in formalin 4% solution. Then, the liver pieces were washed 30 minutes in PBS, and dehydrated in ethanol solutions (successive baths at 70, 80, 95 and 100% ethanol). The liver pieces were incubated in three different baths of Xylene (Sigma-Aldrich cat #534056), followed by two baths in liquid paraffin (56° C.). Liver pieces were then put into racks that were gently filled with Histowax® to completely cover the tissue. The paraffin blocks containing the tissue pieces were removed from the racks and stored at room temperature. The liver blocks were cut into […] slices.
Liver sections were deparaffinized, rehydrated and incubated for 15 minutes in a solution of Fast Green FCF 0.1% (Sigma-Aldrich, cat # F7258) before rinsing in a bath of 0.5% acetic acid (Panreac, cat #131008.1611). […]
A technician blinded to the source of each liver specimen performed histological examinations. […] Briefly, steatosis, lobular inflammation and hepatocytes ballooning were scored. […]
Using Quant Center software (3D Histech, including Pattern Quant and Histo Quant modules), collagen-stained areas were quantified. […] The fibrosis area was then expressed as the percentage of the collagen surface to the whole tissue per animal.

[4] = test system: fibrosing NASH-model of rats fed a CDAA+1% cholesterol diet; test: Hepatic collagen content (hydroxyproline, QuickZyme) in CDAA+1% cholesterol model; format: in vivo, Wistar rats; conditions: Percentage over the untreated CDAA + 1% cholesterol rats; 12 weeks; GFT505 3 mg/kg/d, OCA 10 mg/kg/d, or GFT505 + OCA; mean ± SD
Procedure: as §1, §2
The hepatic collagen content was determined using the appropriate QuickZyme kit (Total collagen assay, cat # QZB-totcol2). The assay is based on the detection of hydroxyproline, which is a non-proteinogenic amino acid mainly found in the triple helix of collagen. Thus, hydroxyproline in tissue hydrolysates can be used as a direct measure of the amount of collagen present in the tissue (without discrimination between procollagen, mature collagen and collagen degradation products). Complete hydrolysis of tissue samples in 6M HCl at 95° C. is required before dosing the hydroxyproline. The assay results in the generation of a chromogen with a maximum absorbance at 570 nm. Results are expressed as mg of collagen/g of liver.

CC[C@H]1[C@@H](O)[C@@H]2[C@H](CC[C@]3(C)[C@@H]([C@H](C)CCOS(=O)(=O)[O-])CC[C@@H]23)[C@@]2(C)CC[C@@H](O)C[C@@H]12.[Na+] [INT-767]
antifibrotic activity (α-SMA inhibition), in words ([1]; 1.9 μM of INT-767 alone): does not show any antifibrotic activity
inhibition at 30 µM ([1]; Homo sapiens, highest dose of INT-767 tested, 30 μM, read-out: α-SMA production inhibition over TGFβ1 control): 13%

CC[C@H]1[C@@H](O)[C@@H]2[C@H](CC[C@]3(C)[C@@H]([C@H](C)CCC(=O)O)CC[C@@H]23)[C@@]2(C)CC[C@@H](O)C[C@@H]12 [OCA, 6α-ethyl chenodeoxycholic acid]
CCR5 mRNA level (marker of inflammation) [2]: 81% ± 28%
TGFβ1 mRNA level [2]: 110% ± 23%
TIMP1 mRNA level [2]: 110% ± 43%
α-SMA mRNA level [2]: 109% ± 68%
effects on ballooning and lobular inflammation, in words ([3]; CDAA/chol diet-induced NASH model): rather modest
effect on fibrosis development, in words (FIGS. 1-2) ([3]; CDAA/chol fed rats, 12 weeks, fibrosis surface and hepatic collagen): does not attenuate fibrosis in a significant manner
Fibrosis surface ([3]; Percentage over the untreated CDAA + 1% cholesterol rats, 12 weeks in diet, GFT505 3 mg/kg/d, OCA 10 mg/kg/d, or GFT505 + OCA, mean ± SD): 74% ± 45%
Hepatic collagen content [4]: 67% ± 23%
